Experimental data from patent publication US6552196B2, “Quinolone carboxylic acid derivatives” (Dong Wha Pharmaceutical Industrial Co., Ltd., priority 1997, dated 2003).
Values after ≈ are worked out from the molar mass of the structure shown.

Experiments:
Type in all cases: cell-based
[1] = tested on: Staphylococcus aureus 690E; test: In vitro antibacterial activity against resistant strains (MIC); settings: resistant strain Staphylococcus aureus 690E; 2-fold agar dilution; methicillin resistant strains 48 hours at 30° C.; read-out: minimum inhibitory concentration (MIC)
Experimental: (§1) 10^7 cfu/ml of bacteria were inoculated and cultured for 18 hours at 37° C. and then the antibacterial activities were measured. For the methicillin resistant strains the activities were measured after 48 hours of cultivation at 30° C. Hoechst Standard strains were used for the testings.

[2] = tested on: Staphylococcus epidermidis 178; test: as above; settings: resistant strain Staphylococcus epidermidis 178; 2-fold agar dilution; methicillin resistant strains 48 hours at 30° C.; read-out: minimum inhibitory concentration (MIC)
Experimental: as §1

[3] = tested on: Staphylococcus aureus 256E; test: as above; settings: resistant strain Staphylococcus aureus 256E; 2-fold agar dilution; methicillin resistant strains 48 hours at 30° C.; read-out: minimum inhibitory concentration (MIC)
Experimental: as §1

[4] = tested on: Staphylococcus aureus 121E; test: as above; settings: resistant strain Staphylococcus aureus 121E; 2-fold agar dilution; methicillin resistant strains 48 hours at 30° C.; read-out: minimum inhibitory concentration (MIC)
Experimental: as §1

[5] = tested on: Staphylococcus aureus 694E; test: as above; settings: resistant strain Staphylococcus aureus 694E; 2-fold agar dilution; methicillin resistant strains 48 hours at 30° C.; read-out: minimum inhibitory concentration (MIC)
Experimental: as §1

[6] = tested on: Staphylococcus aureus 701E; test: as above; settings: resistant strain Staphylococcus aureus 701E; 2-fold agar dilution; methicillin resistant strains 48 hours at 30° C.; read-out: minimum inhibitory concentration (MIC)
Experimental: as §1

[7] = tested on: Staphylococcus aureus 693E; test: as above; settings: resistant strain Staphylococcus aureus 693E; 2-fold agar dilution; methicillin resistant strains 48 hours at 30° C.; read-out: minimum inhibitory concentration (MIC)
Experimental: as §1

[8] = tested on: Staphylococcus aureus 697E; test: as above; settings: resistant strain Staphylococcus aureus 697E; 2-fold agar dilution; methicillin resistant strains 48 hours at 30° C.; read-out: minimum inhibitory concentration (MIC)
Experimental: as §1

[9] = tested on: Staphylococcus aureus 293; test: as above; settings: resistant strain Staphylococcus aureus 293; 2-fold agar dilution; methicillin resistant strains 48 hours at 30° C.; read-out: minimum inhibitory concentration (MIC)
Experimental: as §1

[10] = tested on: Staphylococcus epidermidis 291; test: as above; settings: resistant strain Staphylococcus epidermidis 291; 2-fold agar dilution; methicillin resistant strains 48 hours at 30° C.; read-out: minimum inhibitory concentration (MIC)
Experimental: as §1

[11] = tested on: Staphylococcus aureus 303; test: as above; settings: resistant strain Staphylococcus aureus 303; 2-fold agar dilution; methicillin resistant strains 48 hours at 30° C.; read-out: minimum inhibitory concentration (MIC)
Experimental: as §1

[12] = tested on: Staphylococcus aureus 695E; test: as above; settings: resistant strain Staphylococcus aureus 695E; 2-fold agar dilution; methicillin resistant strains 48 hours at 30° C.; read-out: minimum inhibitory concentration (MIC)
Experimental: as §1

[13] = tested on: Staphylococcus aureus 8236; test: as above; settings: resistant strain Staphylococcus aureus 8236; 2-fold agar dilution; methicillin resistant strains 48 hours at 30° C.; read-out: minimum inhibitory concentration (MIC)
Experimental: as §1

[14] = tested on: Staphylococcus aureus 692E; test: as above; settings: resistant strain Staphylococcus aureus 692E; 2-fold agar dilution; methicillin resistant strains 48 hours at 30° C.; read-out: minimum inhibitory concentration (MIC)
Experimental: as §1

[15] = tested on: Staphylococcus aureus 208E; test: as above; settings: resistant strain Staphylococcus aureus 208E; 2-fold agar dilution; methicillin resistant strains 48 hours at 30° C.; read-out: minimum inhibitory concentration (MIC)
Experimental: as §1

[16] = tested on: Staphylococcus aureus 179; test: as above; settings: resistant strain Staphylococcus aureus 179; 2-fold agar dilution; methicillin resistant strains 48 hours at 30° C.; read-out: minimum inhibitory concentration (MIC)
Experimental: as §1

[17] = tested on: Staphylococcus aureus 703E; test: as above; settings: resistant strain Staphylococcus aureus 703E; 2-fold agar dilution; methicillin resistant strains 48 hours at 30° C.; read-out: minimum inhibitory concentration (MIC)
Experimental: as §1

[18] = tested on: Staphylococcus aureus 88E; test: as above; settings: resistant strain Staphylococcus aureus 88E; 2-fold agar dilution; methicillin resistant strains 48 hours at 30° C.; read-out: minimum inhibitory concentration (MIC)
Experimental: as §1

[19] = tested on: Staphylococcus aureus 241; test: as above; settings: resistant strain Staphylococcus aureus 241; 2-fold agar dilution; methicillin resistant strains 48 hours at 30° C.; read-out: minimum inhibitory concentration (MIC)
Experimental: as §1

[20] = tested on: Streptococcus pyogens 308A; test: In vitro antibacterial activity (MIC), agar dilution; settings: 2-fold agar dilution, Muller-Hinton agar, 18 hours at 37° C., read-out: minimum inhibitory concentration (MIC)
Procedure, shortened: (§2)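 Test strains from the Hoechst standard set are inoculated at 10^7 cfu/ml. Readings follow 18 h culture at 37 °C, except methicillin-resistant strains, read after 48 h at 30 °C.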

Esherichia coli DC0 = test: as above; settings: 2-fold agar dilution, Muller-Hinton agar, 18 hours at 37° C., read-out: minimum inhibitory concentration (MIC)
Procedure, shortened: as §2

[21] = tested on: Pseudomonas aeruginosa 1592E; test: as above; settings: 2-fold agar dilution, Muller-Hinton agar, 18 hours at 37° C., read-out: minimum inhibitory concentration (MIC)
Procedure, shortened: as §2

[22] = tested on: Streptococcus pyogens 77A; test: as above; settings: 2-fold agar dilution, Muller-Hinton agar, 18 hours at 37° C., read-out: minimum inhibitory concentration (MIC)
Procedure, shortened: as §2

[23] = tested on: Staphylococcus aureus 285; test: as above; settings: 2-fold agar dilution, Muller-Hinton agar, 18 hours at 37° C., read-out: minimum inhibitory concentration (MIC)
Procedure, shortened: as §2

[24] = tested on: Klebsiella aerogenes 1522E; test: as above; settings: 2-fold agar dilution, Muller-Hinton agar, 18 hours at 37° C., read-out: minimum inhibitory concentration (MIC)
Procedure, shortened: as §2

[25] = tested on: Pseudomonas aeruginosa 1771; test: as above; settings: 2-fold agar dilution, Muller-Hinton agar, 18 hours at 37° C., read-out: minimum inhibitory concentration (MIC)
Procedure, shortened: as §2

Salmonella typhimurium = test: as above; settings: Salmonella enterica, 2-fold agar dilution, Muller-Hinton agar, 18 hours at 37° C., read-out: minimum inhibitory concentration (MIC)
Procedure, shortened: as §2

[26] = tested on: Pseudomonas aeruginosa 9027; test: as above; settings: 2-fold agar dilution, Muller-Hinton agar, 18 hours at 37° C., read-out: minimum inhibitory concentration (MIC)
Procedure, shortened: as §2

[27] = tested on: Pseudomonas aeruginosa 1771M; test: as above; settings: Pseudomonas aeruginosa, 1771M, 18 h, read-out: minimum inhibitory concentration (MIC)
Procedure, shortened: as §2

[28] = tested on: Streptococcus faecium MD 8b; test: as above; settings: Enterococcus faecium, MD8B, 2-fold agar dilution, Muller-Hinton agar, 18 hours at 37° C., read-out: minimum inhibitory concentration (MIC)
Procedure, shortened: as §2

Esherichia coli 1507E = test: as above; settings: 2-fold agar dilution, Muller-Hinton agar, 18 hours at 37° C., read-out: minimum inhibitory concentration (MIC)
Procedure, shortened: as §2

Esherichia coli DC2 = test: as above; settings: 2-fold agar dilution, Muller-Hinton agar, 18 hours at 37° C., read-out: minimum inhibitory concentration (MIC)
Procedure, shortened: as §2

Klebsiella oxytoca 1082E = test: as above; settings: 2-fold agar dilution, Muller-Hinton agar, 18 hours at 37° C., read-out: minimum inhibitory concentration (MIC)
Procedure, shortened: as §2

Esherichia coli 078 = test: as above; settings: 2-fold agar dilution, Muller-Hinton agar, 18 hours at 37° C., read-out: minimum inhibitory concentration (MIC)
Procedure, shortened: as §2

[29] = tested on: Staphylococcus aureus 503; test: as above; settings: 2-fold agar dilution, Muller-Hinton agar, 18 hours at 37° C., read-out: minimum inhibitory concentration (MIC)
Procedure, shortened: as §2

[30] = tested on: Staphylococcus aureus SG511; test: as above; settings: 2-fold agar dilution, Muller-Hinton agar, 18 hours at 37° C., read-out: minimum inhibitory concentration (MIC)
Procedure, shortened: as §2

Esherichia coli TEM = test: as above; settings: 2-fold agar dilution, Muller-Hinton agar, 18 hours at 37° C., read-out: minimum inhibitory concentration (MIC)
Procedure, shortened: as §2

O=C(O)c1cn(C2CC2)c2cc(N3CCNCC3)c(F)cc2c1=O [Ciprofloxacin, ciprofloxacin, reference compound]
MIC [1]: 0.391 µg/mL (≈ 1.18 µM) | MIC [2]: 50 µg/mL (≈ 151 µM) | MIC [3]: 0.781 µg/mL (≈ 2.36 µM) | MIC [4]: 0.781 µg/mL (≈ 2.36 µM) | MIC [5]: 0.391 µg/mL (≈ 1.18 µM) | MIC [6]: 0.391 µg/mL (≈ 1.18 µM) | MIC [7]: 0.391 µg/mL (≈ 1.18 µM) | MIC [8]: 0.391 µg/mL (≈ 1.18 µM) | MIC [9]: 12.5 µg/mL (≈ 37.7 µM) | MIC [10]: 50 µg/mL (≈ 151 µM) | MIC [11]: 12.5 µg/mL (≈ 37.7 µM) | MIC [12]: 0.391 µg/mL (≈ 1.18 µM) | MIC [13]: 12.5 µg/mL (≈ 37.7 µM) | MIC [14]: 0.391 µg/mL (≈ 1.18 µM) | MIC [15]: 0.781 µg/mL (≈ 2.36 µM) | MIC [16]: 12.5 µg/mL (≈ 37.7 µM) | MIC [17]: 0.391 µg/mL (≈ 1.18 µM) | MIC [18]: 0.781 µg/mL (≈ 2.36 µM) | MIC [19]: 12.5 µg/mL (≈ 37.7 µM) | MIC [20]: 3.12 µg/mL (≈ 9.43 µM) | MIC (Esherichia coli DC0): 0.195 µg/mL (≈ 0.589 µM) | MIC [21]: 0.195 µg/mL (≈ 0.589 µM) | MIC [22]: 0.781 µg/mL (≈ 2.36 µM) | MIC [23]: 0.781 µg/mL (≈ 2.36 µM) | MIC [24]: 0.013 µg/mL (≈ 0.0392 µM) | MIC [25]: 0.195 µg/mL (≈ 0.589 µM) | MIC (Salmonella typhimurium): 0.007 µg/mL (≈ 0.0211 µM) | MIC [26]: 0.195 µg/mL (≈ 0.589 µM) | MIC [27]: 0.049 µg/mL (≈ 0.148 µM) | MIC [28]: 0.391 µg/mL (≈ 1.18 µM) | MIC (Esherichia coli 1507E): 0.007 µg/mL (≈ 0.0211 µM) | MIC (Esherichia coli DC2): 0.049 µg/mL (≈ 0.148 µM) | MIC (Klebsiella oxytoca 1082E): < 0.002 µg/mL | MIC (Esherichia coli 078): 0.004 µg/mL (≈ 0.0121 µM) | MIC [29]: 0.391 µg/mL (≈ 1.18 µM) | MIC [30]: 0.195 µg/mL (≈ 0.589 µM) | MIC (Esherichia coli TEM): 0.007 µg/mL (≈ 0.0211 µM)
